The experiment deals with SARS-CoV-2 PL^pro (Severe acute respiratory syndrome coronavirus 2, UniProt P0DTD1). Kind of experiment: SARS-CoV-2 PL^pro enzymatic inhibition assay (substrate Z-RLRGG-AMC). Format: biochemical.
[1] abbreviates: Table S2, PL^pro inhibitors, 40 nmol/L enzyme, 50 µmol/L substrate, read-out: IC50.
Setting [2] is: Table S6, S/KM = 1/4, read-out: IC50 (μM) at S/KM 1/4.
Setting [3] is: Table S6, S/KM = 2, read-out: IC50 (μM) at S/KM 2.
Where [4] appears, read: Table S6, S/KM = 4, read-out: IC50 (μM) at S/KM 4.
The mark [5] stands for this setting: read-out: IC50 (μM) at S/KM 1/2.
The mark [6] stands for this setting: read-out: IC50 (μM) at S/KM 1/4.
The mark [7] stands for this setting: read-out: IC50 / inhibitory activity toward PL^pro.
Where [8] appears, read: Table S3, representative dual inhibitors, read-out: IC50 for PL^pro.

The results in this text go back to publication PMC9871955, “High-throughput screening of SARS-CoV-2 main and papain-like protease inhibitors” (Protein & Cell, 2022).

Like-named read-outs stand apart in the source and are kept apart here.

Regarding `CCC(C(=O)NCc1ccco1)n1c(Cc2c(Cl)cccc2Cl)nc2ccccc21` (stereo not shown) [CD3226-D010], the IC50 by setting is: under setting [1], 8.61 ± 3.07 µM; under setting [2], 7.6 ± 1 µM.
Turning to `CC(C(=O)NCc1ccco1)n1c(Cc2c(Cl)cccc2Cl)nc2ccccc21` (stereo not shown) [CD3531-C011], the IC50 is 1.98 ± 0.23 µM under setting [1]; 2.4 ± 0.2 µM under setting [3]; 2.7 ± 0.1 µM under setting [4]; 2.2 ± 0.3 µM (read-out: IC50 (μM) at S/KM 1); 1.5 µM under setting [5]; 1.5 ± 0.4 µM under setting [6].
In the case of `O=C(NCc1n[nH]c(=S)n1-c1ccc(Br)cc1)c1ccc(Cl)cc1Cl` [JK0108-D008], the IC50 was found to be 58.8 ± 15.3 µM under setting [1]; 100 ± 29.6 µM under setting [2]; 102 ± 1.2 µM (Table S6, S/KM = 1, read-out: IC50 (μM) at S/KM 1); 200 ± 47.6 µM under setting [3]; 133 ± 14.7 µM under setting [4]; 94.6 ± 11.3 µM under setting [5]. Further, under setting [7], the IC50 stood at 58.8 ± 15.3 µM.
For `CCOc1cc(C(=O)NCc2n[nH]c(=S)n2-c2ccc(Br)cc2)cc(OCC)c1OCC` [JK0109-B004], the IC50 reads like this: under setting [1], 43 ± 0.92 µM; under setting [8], 43 ± 0.9 µM; under setting [2], 2.4 ± 0.1 µM; under setting [3], 8.5 ± 0.9 µM; under setting [4], 18.3 ± 1 µM; (read-out: IC50 (μM) at S/KM 1) 5.9 ± 0.6 µM. For the same compound, the IC50 under setting [5] came to 2.6 ± 0.5 µM.
For `COc1ccc(-n2c(CNC(=O)COc3ccc(Cl)cc3Cl)n[nH]c2=S)cc1` [JK0109-B011], the IC50 under setting [1] worked out at 6.01 ± 0.02 µM; the IC50 under setting [3] was 12.4 ± 1.7 µM; the IC50 (read-out: IC50 (μM) at S/KM 1) was determined as 7.3 ± 0.1 µM; the IC50 under setting [5] stood at 7.4 ± 0.6 µM; the IC50 under setting [6] amounted to 7.9 ± 1.7 µM; the IC50 under setting [7] is 6 µM.
On to `COc1ccc(-n2c(S)nnc2CNC(=O)c2cc(OC)c(OC)c(OC)c2)cc1` [JK0109-C011], for which the IC50 under setting [1] came to 21.2 ± 1.79 µM; the IC50 under setting [8] is 21.2 ± 1.8 µM; the IC50 under setting [3] was determined as 10.7 ± 0.7 µM; the IC50 under setting [4] was 18.6 ± 2.7 µM; the IC50 (read-out: IC50 (μM) at S/KM 1) was determined as 9.4 ± 2.9 µM; the IC50 under setting [5] was determined as 7.1 ± 0.7 µM. The IC50 under setting [6] amounted to 5.9 ± 0.2 µM.
On to `O=C(COc1ccc(Cl)cc1)NCc1n[nH]c(=S)n1-c1ccc(Br)cc1` [JK0109-H005], for which the IC50 under setting [3] was determined as 78.5 ± 5.7 µM, the IC50 under setting [4] came to 91.6 ± 8.9 µM, the IC50 (read-out: IC50 (μM) at S/KM 1) came out at 33 ± 17.9 µM and the IC50 under setting [5] was 21.9 ± 2 µM.
Take `O=c1sc2ccccc2n1Cc1n[nH]c(=S)n1-c1ccccc1` [JK0946-F007]: the IC50 was found to be 105 ± 4.7 µM under setting [3], 202 ± 50.9 µM under setting [4], 43.9 ± 9 µM (read-out: IC50 (μM) at S/KM 1) and 30.3 ± 2.3 µM under setting [5].
